Source: patent publication US20220347175A1, “PYRIDAZINONE DERIVATIVE” (Sumitomo Dainippon Pharma Co., Ltd., priority 2018, published 2022)

Tests used:
[1] = molecular target: T1, human Nav1.5 (Homo sapiens, UniProt Q14524); assay: Amplification of Nav1.5-derived voltage-dependent sodium current (Nav1.5 current), cell line stably expressing human Nav1.5, automated patch clamp; format: cell-based; settings: read-out: Nav1.5 current amplification rate (%); for activation at 10 µM: 10 μmol/L compound, change of the area under the curve of Nav1.5 current (Test Result 1); for activation at 3 µM: compound 3 μmol/L; for activation at 3 µM / activation at 1 µM: CHO-K1 stably expressing human Nav1.5; for activation at 1 µM: compound 1 μmol/L
T1 construct: expressed in transfected cells; host or cells: CHO-K1 (T-REx System, ThermoFisher Scientific)
T1 sequence (Q14524 1-2015 isoform Q14524-2): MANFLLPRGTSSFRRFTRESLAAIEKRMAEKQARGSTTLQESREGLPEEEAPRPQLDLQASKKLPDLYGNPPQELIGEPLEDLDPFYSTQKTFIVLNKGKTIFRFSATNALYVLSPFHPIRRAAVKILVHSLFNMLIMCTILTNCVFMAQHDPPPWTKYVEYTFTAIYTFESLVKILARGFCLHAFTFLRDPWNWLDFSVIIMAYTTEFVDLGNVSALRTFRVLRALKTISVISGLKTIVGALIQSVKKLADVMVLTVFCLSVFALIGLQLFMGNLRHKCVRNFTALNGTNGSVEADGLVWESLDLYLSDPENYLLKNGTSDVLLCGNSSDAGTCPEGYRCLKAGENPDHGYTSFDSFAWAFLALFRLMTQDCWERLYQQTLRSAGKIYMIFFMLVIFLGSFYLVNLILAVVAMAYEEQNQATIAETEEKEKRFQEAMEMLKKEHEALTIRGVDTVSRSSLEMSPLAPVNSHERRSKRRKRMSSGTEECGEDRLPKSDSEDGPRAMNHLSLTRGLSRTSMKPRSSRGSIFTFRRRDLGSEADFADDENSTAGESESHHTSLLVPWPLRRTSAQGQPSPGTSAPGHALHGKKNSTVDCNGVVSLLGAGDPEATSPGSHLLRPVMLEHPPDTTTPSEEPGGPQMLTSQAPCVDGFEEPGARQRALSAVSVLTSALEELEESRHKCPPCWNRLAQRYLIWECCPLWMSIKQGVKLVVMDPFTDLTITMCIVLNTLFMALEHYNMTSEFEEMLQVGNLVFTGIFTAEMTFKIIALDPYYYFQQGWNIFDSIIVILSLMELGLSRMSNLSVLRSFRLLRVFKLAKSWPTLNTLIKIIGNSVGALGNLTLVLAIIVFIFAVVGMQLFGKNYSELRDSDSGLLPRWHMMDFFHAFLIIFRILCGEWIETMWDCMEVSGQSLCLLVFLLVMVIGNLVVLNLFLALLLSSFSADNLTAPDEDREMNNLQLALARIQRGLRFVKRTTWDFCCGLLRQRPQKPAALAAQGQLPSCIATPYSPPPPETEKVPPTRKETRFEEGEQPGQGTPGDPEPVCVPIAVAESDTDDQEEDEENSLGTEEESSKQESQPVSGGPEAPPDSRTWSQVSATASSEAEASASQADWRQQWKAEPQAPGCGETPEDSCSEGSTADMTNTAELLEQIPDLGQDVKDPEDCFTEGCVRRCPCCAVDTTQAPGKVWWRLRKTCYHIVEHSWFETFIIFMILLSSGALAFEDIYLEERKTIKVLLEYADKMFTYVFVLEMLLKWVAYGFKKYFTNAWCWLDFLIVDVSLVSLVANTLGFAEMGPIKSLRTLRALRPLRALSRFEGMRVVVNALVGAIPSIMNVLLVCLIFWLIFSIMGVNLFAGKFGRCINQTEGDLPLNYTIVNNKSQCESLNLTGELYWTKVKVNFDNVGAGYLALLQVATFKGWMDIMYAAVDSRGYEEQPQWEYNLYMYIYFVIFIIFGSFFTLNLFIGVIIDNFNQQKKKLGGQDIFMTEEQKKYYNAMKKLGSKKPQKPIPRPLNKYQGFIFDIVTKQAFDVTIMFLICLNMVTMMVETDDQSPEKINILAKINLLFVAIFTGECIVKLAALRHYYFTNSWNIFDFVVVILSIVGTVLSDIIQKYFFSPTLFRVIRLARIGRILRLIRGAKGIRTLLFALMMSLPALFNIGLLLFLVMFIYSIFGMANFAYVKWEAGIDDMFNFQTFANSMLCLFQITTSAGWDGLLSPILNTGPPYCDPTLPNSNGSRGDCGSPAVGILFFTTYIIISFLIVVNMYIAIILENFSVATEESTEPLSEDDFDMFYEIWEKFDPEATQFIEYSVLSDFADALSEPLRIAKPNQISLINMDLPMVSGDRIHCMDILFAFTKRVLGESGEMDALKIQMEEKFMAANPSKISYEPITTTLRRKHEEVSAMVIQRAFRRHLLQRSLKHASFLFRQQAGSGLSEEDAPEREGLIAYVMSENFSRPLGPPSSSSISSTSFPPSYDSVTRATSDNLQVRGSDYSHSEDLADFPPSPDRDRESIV

[2] = molecular target: T2, human Nav1.1 (Homo sapiens, UniProt P35498); assay: Amplification of Nav1.1-derived voltage-dependent sodium current (Nav1.1 current), cell line stably expressing human Nav1.1, automated patch clamp; format: cell-based; settings: read-out: Nav1.1 current amplification rate (%); for activation at 10 µM: 10 μmol/L compound, change of the area under the curve of Nav1.1 current (Test Result 1); for activation at 3 µM: compound 3 μmol/L; for activation at 3 µM / activation at 1 µM: HEK293 stably expressing human Nav1.1; for activation at 1 µM: compound 1 μmol/L
T2 construct: host or cells: HEK293
Summary of the method: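 Amplification rate (%) is 100 × post-compound/pre-compound Nav1.1 peak current or AUC, minus 100. Ramp-evoked sodium currents were recorded by automated patch clamp in a human Nav1.1 HEK293 stable line, restricted to cells exceeding 500 pA, with compounds added in extracellular solution containing 1% DMSO.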

SMILES | activation at 10 µM [1] | activation at 10 µM [2] | further results
CC1CCN(c2ccc(=O)n(CC(=O)Nc3ccn4c(Br)cnc4c3)n2)CC1 [Example 173] | 47% | 112% | –
Cc1cn2ccc(NC(=O)Cn3nc(N4CCC(C)CC4)ccc3=O)cc2n1 [Example 174] | 4% | 75% | –
Cc1cc2cc(NC(=O)Cn3nc(N4CCC(C)CC4)ccc3=O)ccc2o1 [Example 175] | 1% | 44% | –
O=C(Cn1nc(N2CCC3(CCC3)CC2)ccc1=O)Nc1ccn2cnnc2c1 [Example 176] | 2% | 66% | –
O=C(Cn1nc(N2CCC3(CCC3)C2)ccc1=O)Nc1ccn2ccnc2c1 [Example 177] | 16% | 169% | –
Cc1c(N2CCC(C)(C)CC2)nn(CC(=O)Nc2ccn3ccnc3c2)c(=O)c1C [Example 178] | 1% | 44% | –
O=C(Cn1nc(N2CC3(CCCCC3)C2)ccc1=O)Nc1ccn2ccnc2c1 [Example 179] | -1% | 27% | –
CC1CCN(c2ccc(=O)n(CC(=O)Nc3ccc4c(c3)NC(=O)CC4)n2)CC1 [Example 181] | 4% | 118% | –
COC(=O)c1ccc(NC(=O)Cn2nc(N3CCC(C)CC3)ccc2=O)cn1 [Example 182] | 17% | 32% | –
COc1ccc2c(c1)CCN2C(=O)Cn1nc(N2CCC(C)CC2)ccc1=O [Example 183] | 0% | 95% | –
O=C(Cn1nc(N2CCC3(CCC3)C2)ccc1=O)N1CCc2cc(N3CCOCC3)ccc21 [Example 184] | 16% | 35% | –
O=C(Cn1nc(N2CCC3(CCC3)CC2)ccc1=O)N1CCc2cnccc21 [Example 185] | 2% | 22% | –
COc1ccc2c(c1)CCN2C(=O)Cn1nc(N2CCC3(CCC3)C2)ccc1=O [Example 187] | 17% | 37% | –
O=C(Cn1nc(N2CCC3(CCC3)C2)ccc1=O)N1CCN(c2ccccc2)CC1 [Example 188] | -2% | 30% | –
CC1CCN(c2ccc(=O)n(CC(=O)N3CCc4cc(C(F)(F)F)ccc43)n2)CC1 [Example 189] | -2% | 3% | –
O=C(Cn1nc(N2CCC3(CCC3)CC2)ccc1=O)Nc1ccc2c(c1)COC2 [Example 190] | 12% | 100% | –
O=C(Cn1nc(N2CCC3(CCC3)C2)ccc1=O)Nc1ccc2c(c1)OCCO2 [Example 191] | – | – | activation at 3 µM [1]: 2%; activation at 3 µM [2]: 52%
CC1(C)CCN(c2ccc(=O)n(CC(=O)Nc3ccn4ccnc4c3)n2)CC1 [Example 192] | 2% | 137% | –
Cc1cc(N2CCC3(CCCC3)C2)nn(CC(=O)Nc2ccc3ocnc3c2)c1=O [Example 193] | 0% | 219% | –

SMILES | activation at 10 µM [1] | activation at 10 µM [2] | further results
Cc1cc(=O)n(CC(=O)Nc2ccc3ocnc3c2)nc1N1CCC2(CCCC2)C1 [Example 194] | 33% | 252% | –
COc1cc(=O)n(CC(=O)Nc2ccc3ocnc3c2)nc1N1CCC2(CCCC2)C1 [Example 195] | 29% | 209% | –
CN(C)c1cc(N2CCC3(CCCC3)C2)nn(CC(=O)Nc2ccc3ocnc3c2)c1=O [Example 196] | 18% | 225% | –
CN(C)c1cc(=O)n(CC(=O)Nc2ccc3ocnc3c2)nc1N1CCC2(CCCC2)C1 [Example 197] | 56% | 318% | –
Cc1cc(NC(=O)Cn2nc(N3CCC4(CCCC4)C3)cc(C)c2=O)cc(C)n1 [Example 198] | -9% | 36% | –
Cc1cc(NC(=O)Cn2nc(N3CCC4(CCCC4)C3)c(C)cc2=O)cc(C)n1 [Example 199] | 1% | 36% | –
Cc1cc(N2CCC(C)CC2)nn(CC(=O)Nc2ccc3ocnc3c2)c1=O [Example 200] | 5% | 103% | –
Cc1cc(=O)n(CC(=O)Nc2ccc3ocnc3c2)nc1N1CCC(C)CC1 [Example 201] | 1% | 139% | –
Cc1cc(N2CCC3(CCC3)C2)nn(CC(=O)Nc2ccc3c(c2)OCC3)c1=O [Example 202] | 3% | 131% | –
Cc1cc(=O)n(CC(=O)Nc2ccc3c(c2)OCC3)nc1N1CCC2(CCC2)C1 [Example 203] | 12% | 267% | –
Cc1cc(N2CCC3(CCC3)C2)nn(CC(=O)Nc2ccc3ocnc3c2)c1=O [Example 204] | 8% | 189% | –
Cc1cc(=O)n(CC(=O)Nc2ccc3ocnc3c2)nc1N1CCC2(CCC2)C1 [Example 205] | 20% | 235% | –
O=C(Cn1nc(N2CCC3(CCCC3)C2)cc(N2CCCC2)c1=O)Nc1ccc2ocnc2c1 [Example 206] | 33% | 154% | –
O=C(Cn1nc(N2CCC3(CCC3)C2)cc(N2CCCC2)c1=O)Nc1ccc2ocnc2c1 [Example 207] | 7% | 89% | –
O=C(Cn1nc(N2CCC3(CCC3)C2)c(N2CCCC2)cc1=O)Nc1ccc2ocnc2c1 [Example 208] | 18% | 200% | –
Cc1c(N2CCC3(CCC3)C2)nn(CC(=O)Nc2ccn3ccnc3c2)c(=O)c1C [Example 209] | 16% | 179% | –
CN(C)c1cc(N2CCC(C)(C)CC2)nn(CC(=O)Nc2ccn3ccnc3c2)c1=O [Example 211] | 8% | 212% | –
COc1cc(N2CCC(C)(C)CC2)nn(CC(=O)Nc2ccn3ccnc3c2)c1=O [Example 212] | 3% | 74% | –
COc1cc(N2CCC3(CCC3)C2)nn(CC(=O)Nc2ccn3ccnc3c2)c1=O [Example 213] | 5% | 136% | –

SMILES | activation at 10 µM [1] | activation at 10 µM [2] | further results
CC1(C)CN(c2ccc(=O)n(CC(=O)Nc3ccc4ocnc4c3)n2)CCC12CC2(F)F (stereo not shown) [Example 214] | -1% | 64% | –
Cc1nc2cc(NC(=O)Cn3nc(N4CCC(C)CC4)ccc3=O)cc(Cl)c2o1 [Example 215] | 18% | 183% | –
CC1CCN(c2ccc(=O)n(CC(=O)Nc3cc(F)c4ocnc4c3)n2)CC1 [Example 216] | 3% | 121% | –
CC1CCN(c2ccc(=O)n(CC(=O)Nc3ccc(C(=O)N4CCCC4)nc3)n2)CC1 [Example 217] | 1% | 25% | –
CC1CCN(c2ccc(=O)n(CC(=O)N3CCc4c(N5CCOCC5)cccc43)n2)CC1 [Example 218] | – | – | activation at 1 µM [1]: 9%; activation at 1 µM [2]: 155%
CC1CCN(c2ccc(=O)n(CC(=O)N3CCc4cc(N5CCCC5=O)ccc43)n2)CC1 [Example 219] | 12% | 97% | –
CC1CCN(c2ccc(=O)n(CC(=O)N3CCc4cc(N5CCN(C)CC5)ccc43)n2)CC1 [Example 220] | 5% | 50% | –
CC1(C)CCN(c2ccc(=O)n(CC(=O)N3CCc4c(N5CCOCC5)cccc43)n2)CC1 [Example 221] | 15% | 281% | –
CN(C)c1cc(N2CCC3(CCC3)C2)nn(CC(=O)N2CCc3c(N4CCOCC4)cccc32)c1=O [Example 222] | – | – | activation at 1 µM [1]: 11%; activation at 1 µM [2]: 137%
CN1CCN(c2cccc3c2CCN3C(=O)Cn2nc(N3CCC(C)(C)CC3)ccc2=O)CC1 [Example 223] | 0% | 46% | –
COc1cc(N2CCC(C)(C)CC2)nn(CC(=O)N2CCc3c(N4CCOCC4)cccc32)c1=O [Example 224] | 11% | 118% | –
Cc1cc(N2CCC3(CCC3)C2)nn(CC(=O)N2CCc3c(N4CCN(C)CC4)cccc32)c1=O [Example 225] | 2% | 146% | –
Cc1c(N2CCC3(CCC3)C2)nn(CC(=O)N2CCc3c(N4CCOCC4)cccc32)c(=O)c1C [Example 226] | 71% | 319% | –
COc1cc(N2CCC3(CCC3)C2)nn(CC(=O)N2CCc3c(N4CCOCC4)cccc32)c1=O [Example 227] | – | – | activation at 3 µM [1]: 17%; activation at 3 µM [2]: 303%
Cc1cnc2cc(NC(=O)Cn3nc(N4CCC(C)CC4)ccc3=O)ccn12 [Example 232] | 8% | 37% | –
CC1(C)CCN(c2ccc(=O)n(CC(=O)N3CCc4c(-c5cccnc5)cccc43)n2)CC1 [Example 234] | – | – | activation at 1 µM [1]: 4%; activation at 1 µM [2]: 240%
CC1(C)CCN(c2ccc(=O)n(CC(=O)N3CCc4c(-c5ccnnc5)cccc43)n2)CC1 [Example 235] | – | – | activation at 1 µM [1]: 7%; activation at 1 µM [2]: 198%
CC1CC=C(c2ccc(=O)n(CC(=O)Nc3ccc4oc(N(C)C)nc4c3)n2)CC1 (stereo not shown) [Example 244, N-[2-(dimethylamino)-1,3-benzooxazol-5-yl]-2-[3-(4-methylcyclohex-1-en)-6-oxopyridazin-1(6H)-yl]acetamide] | – | – | activation at 3 µM [1]: 21%; activation at 3 µM [2]: 263%
